Assay results reported in patent US12152991B2, “Time-resolved laser-induced fluorescence spectroscopy systems and uses thereof” (Cedars-Sinai Medical Center, priority 2013, dated 2024).

Tested on: rabbit brain tissue
Test: Continuous NADH fluorescence monitoring (TRLIFS) in ex-vivo brain tissue exposed to Rotenone
Assay type: cell-based
Conditions: FIG. 6
Source text: In order to excite the tissue, a Q-switched Nd:YaG laser emitting at a wavelength of 350 nm was used, running at 1 KHz with a pulse width (FWHM) of 400 ps (Teem Photonics PNVM02510). […] The excitation light was delivered to the tissue using a custom made trifurcated optical probe. The probe consisted of a central 600 micron fiber for delivering the excitation light surrounded by twelve 200 micron fibers to collect the fluorescence (FIG. 3). Every other fiber from the twelve collection fibers were bundled together forming two channels. One collection channel/bundle connected to a spectrometer (Ocean Optics, Maya), which measured the fluorescence spectrum every 100 ms and the other channel/bundle connected to a beam splitter (demultiplexer). The beam splitter at 452 nm of wavelength separated the significant free and bound fluorescence, which was recorded both by MCP-PMT and spectrometer.
Rabbit brain was removed after sacrificing the animal in the OR and transported in cold oxygen rich Kreb-ringer solution to the laboratory. […] A baseline NADH (bound and free) was recorded till the fluorescence from the tissue equilibrated and plateaued. After approximately 30 mins, a measured dose of 50 nM rotenone, which blocks the binding of NADH to […] in the mitochondrion, was added. […]
The effect of various concentrations of Rotenone on the rabbit brain tissue was recorded (FIG. 6). […]

For `C=C(C)[C@H]1Cc2c(ccc3c2O[C@@H]2COc4cc(OC)c(OC)cc4[C@@H]2C3=O)O1` [Rotenone], the “NADH level (fluorescence, free and bound)” value (ex-vivo rabbit brain cortex in Kreb-Ringer solution, 95% O2/5% CO2, 50 nM Rotenone added, excitation 350 nm) was “increase in NADH level” and the NADH fluorescence (ex-vivo rabbit brain cortex, increasing concentrations of Rotenone added every 10 mins) was “NADH fluorescence increased”.
